From ChEMBL document CHEMBL1201861, “Genomics of Drug Sensitity in Cancer screening data, Wellcome Trust Sanger Institute”

These compounds were tested on COLO-800 (assay: cells). Settings: Homo sapiens, COLO-800.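 Also: growth inhibition of COLO-800 cells, read out with a cell viability assay.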
Type: functional, cell-based, Homo sapiens
Description: SANGER: Inhibition of human COLO-800 cell growth in a cell viability assay.
Work on `Nc1cccc2c1CN(C1CCC(=O)NC1=O)C2=O` (centres undefined) [LENALIDOMIDE] yielded an IC50 of over 5 µM.

These compounds were tested on COLO-829 (assay: cells). Settings: Homo sapiens, COLO-829.
Type: functional, cell-based, Homo sapiens
Description: SANGER: Inhibition of human COLO-829 cell growth in a cell viability assay.
`Nc1cccc2c1CN(C1CCC(=O)NC1=O)C2=O` (centres undefined) [LENALIDOMIDE] gave an IC50 of over 5 µM.

The compounds below were run on CP66-MEL (assay: cells). Settings: Homo sapiens, CP66-MEL.
Type: functional, cell-based, Homo sapiens
Description: SANGER: Inhibition of human CP66-MEL cell growth in a cell viability assay.
Work on `Nc1cccc2c1CN(C1CCC(=O)NC1=O)C2=O` (centres undefined) [LENALIDOMIDE] yielded an IC50 of over 5 µM.

What follows are compounds tested on CTV-1 (assay: cells). Settings: Homo sapiens, CTV-1.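 Also: growth inhibition of the cell line, read out with a cell viability assay.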
Type: functional, cell-based, Homo sapiens
Description: SANGER: Inhibition of human CTV-1 cell growth in a cell viability assay.
Work on `Nc1cccc2c1CN(C1CCC(=O)NC1=O)C2=O` (centres undefined) [LENALIDOMIDE] yielded an IC50 of over 5 µM.

What follows are compounds tested on DSH1 (assay: cells). Settings: Homo sapiens, DSH1.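 Also: growth inhibition of human DSH1 cells, measured with a cell viability readout.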
Type: functional, cell-based, Homo sapiens
Description: SANGER: Inhibition of human DSH1 cell growth in a cell viability assay.
With `Nc1cccc2c1CN(C1CCC(=O)NC1=O)C2=O` (centres undefined) [LENALIDOMIDE] the IC50 was over 5 µM.

What follows are compounds tested on EC-GI-10 (assay: cells). Settings: Homo sapiens, EC-GI-10.
Type: functional, cell-based, Homo sapiens
Description: SANGER: Inhibition of human EC-GI-10 cell growth in a cell viability assay.
`Nc1cccc2c1CN(C1CCC(=O)NC1=O)C2=O` (centres undefined) [LENALIDOMIDE] gave an IC50 of over 5 µM.

These compounds were tested on ES1 (assay: cells). Settings: Homo sapiens, ES1.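 Also: growth inhibition of ES1 cells, read out with a cell viability assay.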
Type: functional, cell-based, Homo sapiens
Description: SANGER: Inhibition of human ES1 cell growth in a cell viability assay.
For `Nc1cccc2c1CN(C1CCC(=O)NC1=O)C2=O` (centres undefined) [LENALIDOMIDE], the IC50 was over 5 µM.

What follows are compounds tested on ES7 (assay: cells). Settings: Homo sapiens, ES7.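 Also: growth inhibition of cultured human ES7 cells, read out as cell viability.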
Type: functional, cell-based, Homo sapiens
Description: SANGER: Inhibition of human ES7 cell growth in a cell viability assay.
With `Nc1cccc2c1CN(C1CCC(=O)NC1=O)C2=O` (centres undefined) [LENALIDOMIDE] the IC50 was over 5 µM.

The compounds below were run on EW-18 (assay: cells). Settings: Homo sapiens, EW-18.
Type: functional, cell-based, Homo sapiens
Description: SANGER: Inhibition of human EW-18 cell growth in a cell viability assay.
`Nc1cccc2c1CN(C1CCC(=O)NC1=O)C2=O` (centres undefined) [LENALIDOMIDE] gave an IC50 of over 5 µM.

Each compound was assayed on EOL1 (assay: cells). Settings: Homo sapiens, EOL1.
Type: functional, cell-based, Homo sapiens
Description: SANGER: Inhibition of human EoL-1-cell cell growth in a cell viability assay.
`Nc1cccc2c1CN(C1CCC(=O)NC1=O)C2=O` (centres undefined) [LENALIDOMIDE] showed an IC50 of 4.11 µM.

The compounds below were run on GB-1 (assay: cells). Settings: Homo sapiens, GB-1.
Type: functional, cell-based, Homo sapiens
Description: SANGER: Inhibition of human GB-1 cell growth in a cell viability assay.
In the case of `Nc1cccc2c1CN(C1CCC(=O)NC1=O)C2=O` (centres undefined) [LENALIDOMIDE], the IC50 is reported as over 5 µM.

What follows are compounds tested on GT3TKB (assay: cells). Settings: Homo sapiens, GT3TKB.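 Also: growth inhibition of the cell line, read out with a cell viability assay.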
Type: functional, cell-based, Homo sapiens
Description: SANGER: Inhibition of human GT3TKB cell growth in a cell viability assay.
`Nc1cccc2c1CN(C1CCC(=O)NC1=O)C2=O` (centres undefined) [LENALIDOMIDE] showed an IC50 of over 5 µM.

What follows are compounds tested on HDLM-2 (assay: cells). Settings: Homo sapiens, HDLM-2.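 Also: cell viability assay measuring suppression of HDLM-2 proliferation.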
Type: functional, cell-based, Homo sapiens
Description: SANGER: Inhibition of human HDLM-2 cell growth in a cell viability assay.
`Nc1cccc2c1CN(C1CCC(=O)NC1=O)C2=O` (centres undefined) [LENALIDOMIDE] gave an IC50 of over 5 µM.

Each compound was assayed on KLE (assay: cells). Settings: Homo sapiens, KLE.
Type: functional, cell-based, Homo sapiens
Description: SANGER: Inhibition of human KLE cell growth in a cell viability assay.
Work on `Nc1cccc2c1CN(C1CCC(=O)NC1=O)C2=O` (centres undefined) [LENALIDOMIDE] yielded an IC50 of over 5 µM.

What follows are compounds tested on KMOE-2 (assay: cells). Settings: Homo sapiens, KMOE-2.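 Also: growth inhibition of human KMOE-2 cells, read out with a cell viability assay.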
Type: functional, cell-based, Homo sapiens
Description: SANGER: Inhibition of human KMOE-2 cell growth in a cell viability assay.
`Nc1cccc2c1CN(C1CCC(=O)NC1=O)C2=O` (centres undefined) [LENALIDOMIDE] was tested, and the IC50 was over 5 µM.

These compounds were tested on KNS-81-FD (assay: cells). Settings: Homo sapiens, KNS-81-FD.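 Also: growth inhibition of KNS-81-FD cells, read out with a cell viability assay.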
Type: functional, cell-based, Homo sapiens
Description: SANGER: Inhibition of human KNS-81-FD cell growth in a cell viability assay.
For `Nc1cccc2c1CN(C1CCC(=O)NC1=O)C2=O` (centres undefined) [LENALIDOMIDE], the IC50 was over 5 µM.

The compounds below were run on LAN-6 (assay: cells). Settings: Homo sapiens, LAN-6.
Type: functional, cell-based, Homo sapiens
Description: SANGER: Inhibition of human LAN-6 cell growth in a cell viability assay.
`Nc1cccc2c1CN(C1CCC(=O)NC1=O)C2=O` (centres undefined) [LENALIDOMIDE] showed an IC50 of over 5 µM.

What follows are compounds tested on LB1047-RCC (assay: cells). Settings: Homo sapiens, LB1047-RCC.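 Also: inhibition of cell growth, determined with a cell viability assay.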
Type: functional, cell-based, Homo sapiens
Description: SANGER: Inhibition of human LB1047-RCC cell growth in a cell viability assay.
Work on `Nc1cccc2c1CN(C1CCC(=O)NC1=O)C2=O` (centres undefined) [LENALIDOMIDE] yielded an IC50 of over 5 µM.

What follows are compounds tested on LS-123 (assay: cells). Settings: Homo sapiens, LS-123.
Type: functional, cell-based, Homo sapiens
Description: SANGER: Inhibition of human LS-123 cell growth in a cell viability assay.
`Nc1cccc2c1CN(C1CCC(=O)NC1=O)C2=O` (centres undefined) [LENALIDOMIDE] gave an IC50 of over 5 µM.

Each compound was assayed on LXF-289 cell line (assay: cells). Settings: Homo sapiens, LXF-289.
Type: functional, cell-based, Homo sapiens
Description: SANGER: Inhibition of human LXF-289 cell growth in a cell viability assay.
Work on `Nc1cccc2c1CN(C1CCC(=O)NC1=O)C2=O` (centres undefined) [LENALIDOMIDE] yielded an IC50 of over 5 µM.

The compounds below were run on MHH-NB-11 (assay: cells). Settings: Homo sapiens, MHH-NB-11.
Type: functional, cell-based, Homo sapiens
Description: SANGER: Inhibition of human MHH-NB-11 cell growth in a cell viability assay.
In the case of `Nc1cccc2c1CN(C1CCC(=O)NC1=O)C2=O` (centres undefined) [LENALIDOMIDE], the IC50 is reported as over 5 µM.

What follows are compounds tested on MHH-PREB-1 (assay: cells). Settings: Homo sapiens, MHH-PREB-1.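 Also: cell viability assay measuring inhibition of proliferation of human MHH-PREB-1 cells.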
Type: functional, cell-based, Homo sapiens
Description: SANGER: Inhibition of human MHH-PREB-1 cell growth in a cell viability assay.
With `Nc1cccc2c1CN(C1CCC(=O)NC1=O)C2=O` (centres undefined) [LENALIDOMIDE] the IC50 was over 5 µM.

Each compound was assayed on ML-2 (assay: cells). Settings: Homo sapiens, ML-2.
Type: functional, cell-based, Homo sapiens
Description: SANGER: Inhibition of human ML-2 cell growth in a cell viability assay.
`Nc1cccc2c1CN(C1CCC(=O)NC1=O)C2=O` (centres undefined) [LENALIDOMIDE] showed an IC50 of over 5 µM.

The compounds below were run on NB69 (assay: cells). Settings: Homo sapiens, NB69.
Type: functional, cell-based, Homo sapiens
Description: SANGER: Inhibition of human NB69 cell growth in a cell viability assay.
Compound `Nc1cccc2c1CN(C1CCC(=O)NC1=O)C2=O` (centres undefined) [LENALIDOMIDE] has an IC50 of over 5 µM.
